Laboratory results as given in ChEMBL document CHEMBL5143674, “Discovery of benzo[d]oxazol-2(3H)-one derivatives as a new class of TNIK inhibitors for the treatment of colorectal cancer” (Bioorg Med Chem Lett, 2022).
The source made the active and inactive calls. No cut-off for these calls is given here.

Key:
[1] = biological target: TRAF2 and NCK-interacting protein kinase (Homo sapiens, UniProt Q9UKE5); test: Inhibition of human recombinant TNIK (1 to 367 residues) using RLGRDKYKTLRQIRQ as substrate incubated for 40 mins in presence of Mg/ATP mix by [gamma p33]-ATP based radiometric scintillation counting method
[2] = system: HCT-116; test: Antiproliferative activity against human HCT-116 cells assessed as inhibition of cell proliferation incubated for 72 hrs by MTT assay; type: functional, cell-based; settings: HCT-116, 72 h
[3] = biological target: Vascular endothelial growth factor receptor 2 (Homo sapiens) (UniProt P35968); test: Inhibition of recombinant human KDR (790 to end residues) using myelin basic protein as substrate incubated for 40 mins in presence of [gamma-33P]-ATP by radiometric based scintillation counter assay
[4] = biological target: Vascular endothelial growth factor receptor 3 (Homo sapiens) (UniProt P35916); test: Inhibition of human recombinant FLT4 (800 to end residues) using GGEEEEYFELVKKKK as substrate incubated for 40 mins in presence of [gamma-33P]-ATP by radiometric based scintillation counter assay
[5] = system: HCT-116; test: Inhibition of colony formation in human HCT-116 cells assessed as inhibition of cell proliferation at 1.25 to 5 uM incubated for 14 days by crystal violet staining based microscopic analysis; type: functional; settings: dose 1.25-5 µM, time 14.0 day, DDE = dose-dependent effect
[6] = system: HCT-116; test: Inhibition of cell migration in human HCT-116 cells at 1 uM incubated for 24 to 48 hrs by wound-closure assay; type: functional, cell-based; settings: time 24-48 hrs
[7] = system: HCT-116; test: Downregulation of nuclear beta-catenin protein expression in human HCT-116 cells at 10 to 40 uM incubated for 48 hrs by western blot analysis; type: functional, cell-based; settings: dose 10-40 µM, DDE = dose-dependent effect
[8] = system: HCT-116; test: Downregulation of nuclear TCF-4 protein expression in human HCT-116 cells at 10 to 40 uM incubated for 48 hrs by western blot analysis; type: functional, cell-based; settings: dose 10-40 µM, DDE = dose-dependent effect
[9] = system: HCT-116; test: Downregulation of Axin2 protein expression in human HCT-116 cells at 10 to 40 uM incubated for 48 hrs by western blot analysis; type: functional, cell-based; settings: dose 10-40 µM
[10] = system: HCT-116; test: Downregulation of c-Myc protein expression in human HCT-116 cells at 10 to 40 uM incubated for 48 hrs by western blot analysis; type: functional, cell-based; settings: dose 10-40 µM

Sequence of TRAF2 and NCK-interacting protein kinase (Q9UKE5 whole entry, the tested form may be a part): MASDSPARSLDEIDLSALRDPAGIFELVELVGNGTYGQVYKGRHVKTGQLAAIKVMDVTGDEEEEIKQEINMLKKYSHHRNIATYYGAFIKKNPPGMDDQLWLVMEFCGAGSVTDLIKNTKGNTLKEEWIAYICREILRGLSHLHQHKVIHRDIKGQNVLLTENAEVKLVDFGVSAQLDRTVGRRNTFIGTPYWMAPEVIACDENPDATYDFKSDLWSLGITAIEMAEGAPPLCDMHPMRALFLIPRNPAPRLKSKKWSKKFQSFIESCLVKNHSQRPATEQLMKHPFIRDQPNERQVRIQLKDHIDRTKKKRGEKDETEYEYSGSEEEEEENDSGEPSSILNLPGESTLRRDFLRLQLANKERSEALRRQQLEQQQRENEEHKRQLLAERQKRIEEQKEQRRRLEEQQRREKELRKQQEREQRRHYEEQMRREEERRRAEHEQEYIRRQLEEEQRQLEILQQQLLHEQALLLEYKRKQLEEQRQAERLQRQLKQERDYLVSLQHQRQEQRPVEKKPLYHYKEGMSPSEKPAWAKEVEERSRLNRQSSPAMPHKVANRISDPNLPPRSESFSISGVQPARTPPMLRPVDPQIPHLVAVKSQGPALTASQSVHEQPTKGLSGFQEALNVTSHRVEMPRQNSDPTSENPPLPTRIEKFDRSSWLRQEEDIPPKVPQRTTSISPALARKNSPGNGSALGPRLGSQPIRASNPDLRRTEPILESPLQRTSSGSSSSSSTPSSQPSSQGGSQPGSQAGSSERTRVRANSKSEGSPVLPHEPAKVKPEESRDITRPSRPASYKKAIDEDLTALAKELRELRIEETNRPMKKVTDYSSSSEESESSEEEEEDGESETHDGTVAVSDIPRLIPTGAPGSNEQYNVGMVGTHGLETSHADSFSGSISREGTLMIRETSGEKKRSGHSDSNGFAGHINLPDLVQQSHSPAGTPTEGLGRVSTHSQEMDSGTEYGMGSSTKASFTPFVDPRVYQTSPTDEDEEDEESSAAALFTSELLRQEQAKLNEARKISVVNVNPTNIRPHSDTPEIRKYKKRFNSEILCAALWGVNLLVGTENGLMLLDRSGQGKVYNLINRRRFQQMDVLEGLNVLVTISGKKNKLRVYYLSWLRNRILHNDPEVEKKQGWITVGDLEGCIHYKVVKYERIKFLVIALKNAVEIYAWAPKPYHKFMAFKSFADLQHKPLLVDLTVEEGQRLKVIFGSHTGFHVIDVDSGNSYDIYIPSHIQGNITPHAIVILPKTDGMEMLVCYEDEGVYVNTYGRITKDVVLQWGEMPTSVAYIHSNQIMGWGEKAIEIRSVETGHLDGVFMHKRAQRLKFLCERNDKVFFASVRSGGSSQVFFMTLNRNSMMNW
Sequence of Vascular endothelial growth factor receptor 3 (Homo sapiens) (P35916 whole entry): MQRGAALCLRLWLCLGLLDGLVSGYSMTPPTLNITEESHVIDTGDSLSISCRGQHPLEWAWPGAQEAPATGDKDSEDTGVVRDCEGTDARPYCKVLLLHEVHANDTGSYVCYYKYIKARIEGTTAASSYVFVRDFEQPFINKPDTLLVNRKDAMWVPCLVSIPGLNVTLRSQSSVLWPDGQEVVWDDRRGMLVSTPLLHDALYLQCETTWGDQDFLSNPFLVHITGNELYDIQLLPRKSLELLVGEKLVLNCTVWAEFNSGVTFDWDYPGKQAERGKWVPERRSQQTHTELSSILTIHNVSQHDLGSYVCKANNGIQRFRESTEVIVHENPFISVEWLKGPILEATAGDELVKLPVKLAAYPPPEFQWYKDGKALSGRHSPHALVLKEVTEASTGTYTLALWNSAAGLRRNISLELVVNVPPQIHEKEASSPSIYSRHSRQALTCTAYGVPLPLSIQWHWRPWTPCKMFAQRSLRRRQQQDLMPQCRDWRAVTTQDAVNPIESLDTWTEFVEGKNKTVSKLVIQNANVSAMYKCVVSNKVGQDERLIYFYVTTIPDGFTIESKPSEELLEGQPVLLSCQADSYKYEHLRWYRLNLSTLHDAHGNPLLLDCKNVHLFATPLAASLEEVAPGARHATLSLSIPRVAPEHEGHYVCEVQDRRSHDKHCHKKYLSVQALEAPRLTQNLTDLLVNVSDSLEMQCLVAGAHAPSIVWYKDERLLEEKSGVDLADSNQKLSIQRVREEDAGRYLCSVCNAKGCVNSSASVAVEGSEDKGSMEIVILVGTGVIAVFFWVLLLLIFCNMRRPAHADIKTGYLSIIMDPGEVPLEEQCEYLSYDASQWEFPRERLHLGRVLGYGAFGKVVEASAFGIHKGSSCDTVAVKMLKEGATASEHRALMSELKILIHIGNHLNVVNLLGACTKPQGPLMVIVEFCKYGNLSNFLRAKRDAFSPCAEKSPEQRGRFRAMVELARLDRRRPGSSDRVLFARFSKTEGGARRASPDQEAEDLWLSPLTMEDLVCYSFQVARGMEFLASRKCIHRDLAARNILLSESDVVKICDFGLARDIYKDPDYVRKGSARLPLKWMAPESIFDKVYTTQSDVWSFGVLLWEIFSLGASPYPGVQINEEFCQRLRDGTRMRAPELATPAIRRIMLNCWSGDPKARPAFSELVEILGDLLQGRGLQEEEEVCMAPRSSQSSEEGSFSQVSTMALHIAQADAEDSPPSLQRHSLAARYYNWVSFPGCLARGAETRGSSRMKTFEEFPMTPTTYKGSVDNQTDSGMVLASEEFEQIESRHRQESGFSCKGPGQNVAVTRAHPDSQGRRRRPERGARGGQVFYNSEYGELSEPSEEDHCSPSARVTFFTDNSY
Sequence of Vascular endothelial growth factor receptor 2 (Homo sapiens) (P35968 whole entry): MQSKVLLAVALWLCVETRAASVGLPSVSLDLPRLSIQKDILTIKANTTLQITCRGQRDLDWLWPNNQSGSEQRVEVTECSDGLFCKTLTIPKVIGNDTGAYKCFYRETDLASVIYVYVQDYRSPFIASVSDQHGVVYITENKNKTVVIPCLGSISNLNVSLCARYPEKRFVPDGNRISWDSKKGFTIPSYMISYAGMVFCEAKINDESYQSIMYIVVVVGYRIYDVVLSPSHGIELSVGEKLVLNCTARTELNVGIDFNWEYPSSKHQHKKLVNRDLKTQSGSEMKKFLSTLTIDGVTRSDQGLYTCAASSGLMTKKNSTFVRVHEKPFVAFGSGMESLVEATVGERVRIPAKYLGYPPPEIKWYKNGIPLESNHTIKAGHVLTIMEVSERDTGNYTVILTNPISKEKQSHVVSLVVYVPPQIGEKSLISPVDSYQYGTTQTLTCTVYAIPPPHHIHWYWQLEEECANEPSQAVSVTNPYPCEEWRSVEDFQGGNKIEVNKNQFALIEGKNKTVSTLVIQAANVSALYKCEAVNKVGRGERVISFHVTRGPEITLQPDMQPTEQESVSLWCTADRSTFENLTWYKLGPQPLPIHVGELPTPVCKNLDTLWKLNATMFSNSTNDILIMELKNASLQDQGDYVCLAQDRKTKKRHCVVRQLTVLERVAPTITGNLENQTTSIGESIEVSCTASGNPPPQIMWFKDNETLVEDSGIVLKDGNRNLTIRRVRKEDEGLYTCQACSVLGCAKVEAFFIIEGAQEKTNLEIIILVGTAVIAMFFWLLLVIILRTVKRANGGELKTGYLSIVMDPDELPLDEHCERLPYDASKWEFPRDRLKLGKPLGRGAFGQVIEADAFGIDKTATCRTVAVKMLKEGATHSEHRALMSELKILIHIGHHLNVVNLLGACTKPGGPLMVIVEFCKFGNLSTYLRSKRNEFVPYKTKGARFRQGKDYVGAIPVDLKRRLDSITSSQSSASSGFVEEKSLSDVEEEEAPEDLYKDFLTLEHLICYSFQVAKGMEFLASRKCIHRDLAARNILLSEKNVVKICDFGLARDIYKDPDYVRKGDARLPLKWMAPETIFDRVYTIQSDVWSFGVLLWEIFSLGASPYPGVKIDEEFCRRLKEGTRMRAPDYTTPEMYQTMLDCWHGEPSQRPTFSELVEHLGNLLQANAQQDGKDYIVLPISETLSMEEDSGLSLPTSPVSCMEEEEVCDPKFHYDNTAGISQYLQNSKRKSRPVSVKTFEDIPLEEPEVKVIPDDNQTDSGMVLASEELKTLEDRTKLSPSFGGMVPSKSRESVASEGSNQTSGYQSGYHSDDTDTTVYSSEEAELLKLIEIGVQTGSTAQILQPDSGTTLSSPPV

IC50 [1] | IC50 [2] | SMILES | also measured
> 10 µM | – | O=c1oc2cc(-c3cnc4cccnn34)ccc2n1Cc1ccc(F)cc1 | –
0.356 µM | 5.12 µM | Cc1cccc(Cn2c(=O)oc3cc(-c4cnc5[nH]ccc5c4)ccc32)c1 | –
0.61 µM | 36.4 µM | COc1cc(-c2ccc3c(c2)oc(=O)n3Cc2ccc(F)cc2)cnc1N | –
0.09 µM | 5.92 µM | O=c1oc2cc(-c3cnc4[nH]ccc4c3)ccc2n1Cc1cccc(F)c1 | –
> 10 µM | – | COc1cccc(Cn2c(=O)oc3cc(-c4cnc5cc[nH]c5c4)ccc32)c1 | –
> 10 µM | – | COc1cccc(Cn2c(=O)oc3cc(-c4cnc(C#N)c(C)c4)ccc32)c1 | –
4.08 µM | – | O=c1oc2cc(-c3cnc4[nH]ccc4n3)ccc2n1Cc1ccc(F)cc1 | –
0.289 µM | 7.06 µM | O=c1oc2cc(-c3cnc4[nH]ccc4c3)ccc2n1Cc1cccc(OC(F)(F)F)c1 | –
0.91 µM | > 100 µM | O=c1oc2cc(-c3ccnc4[nH]ncc34)ccc2n1Cc1ccc(F)cc1 | –
9 µM | – | COc1cccc(Cn2c(=O)oc3cc(-c4ccnc5[nH]ccc45)ccc32)c1 | –
0.228 µM | 11.8 µM | O=c1oc2cc(-c3c[nH]c4ncccc34)ccc2n1Cc1ccc(F)cc1 | –
> 10 µM | – | O=c1cnc2cc(-c3ccc4c(c3)oc(=O)n4Cc3ccc(F)cc3)ccc2[nH]1 | –
> 10 µM | – | O=c1oc2cc(-c3cnc4cnccn34)ccc2n1Cc1ccc(F)cc1 | –
0.265 µM | > 100 µM | COc1cccc(Cn2c(=O)oc3cc(-c4ccc5c(c4)CCN5)ccc32)c1 | –
> 10 µM | – | O=c1oc2cc(-c3cnc4ccnn4c3)ccc2n1Cc1ccc(F)cc1 | –
> 10 µM | – | O=c1oc2cc(-c3cnc4ncccn34)ccc2n1Cc1ccc(F)cc1 | –
0.156 µM | 8.25 µM | N#Cc1cc(-c2ccc3c(c2)oc(=O)n3Cc2ccc(F)cc2)cnc1N | –
0.412 µM | 7.44 µM | COc1cccc(Cn2c(=O)oc3cc(-c4ccc(N)nc4)ccc32)c1 | –
0.663 µM | > 100 µM | Nc1ncnn2c(-c3ccc4c(c3)oc(=O)n4Cc3ccc(F)cc3)ccc12 | –
0.05 µM | 5 µM | COc1cccc(Cn2c(=O)oc3cc(-c4cnc5[nH]ccc5c4)ccc32)c1 | inhibition [3]: > 80%; inhibition [4]: > 80%; inhibition [5]: Dde; inhibition [6]: Active; Activity [7]: Dde; Activity [8]: Dde; Activity [9]: Active; Activity [10]: Active

IC50 [1] | IC50 [2] | SMILES | also measured
0.11 µM | 5.99 µM | O=c1oc2cc(-c3cnc4[nH]ccc4c3)ccc2n1Cc1ccc(F)cc1 | –
> 10 µM | – | COc1cccc(Cn2c(=O)oc3cc(-c4ccc5[nH]cc(C(=O)NC6CC6)c5c4)ccc32)c1 | –
3.98 µM | – | COc1cccc(Cn2c(=O)oc3cc(-c4cnc5[nH]ccc5n4)ccc32)c1 | –
> 10 µM | – | N#Cc1cccc(Cn2c(=O)oc3cc(-c4cnc5[nH]ccc5c4)ccc32)c1 | –
0.719 µM | 8.05 µM | COc1cc(Cn2c(=O)oc3cc(-c4cnc5[nH]ccc5c4)ccc32)ccc1F | –
– | 0.403 µM | O[C@H]1CC[C@@H](Oc2cccc3cnc(Nc4ccc5nc[nH]c5c4)nc23)CC1 | –
> 10 µM | – | O=c1oc2cc(-c3ccc4nncn4c3)ccc2n1Cc1ccc(F)cc1 | –
> 10 µM | – | COc1cccc(Cn2c(=O)oc3cc(-c4ccc5[nH]c(C(=O)NC6CC6)cc5c4)ccc32)c1 | –
4.44 µM | – | O=c1oc2cc(-c3ccn4ncnc4c3)ccc2n1Cc1ccc(F)cc1 | –
2.44 µM | – | O=c1oc2cc(-c3ccc4ncnn4c3)ccc2n1Cc1ccc(F)cc1 | –
0.234 µM | 16.5 µM | Nc1ccc(-c2ccc3c(c2)oc(=O)n3Cc2ccc(F)cc2)cn1 | –
1.05 µM | – | O=c1oc2cc(-c3cnc4[nH]ccc4c3)ccc2n1Cc1ccccc1F | –
5.61 µM | – | COc1cccc(Cn2c(=O)oc3cc(-c4cncnc4)ccc32)c1 | –
1.16 µM | – | COc1cccc(Cn2c(=O)oc3cc(-c4ccc5[nH]ccc5c4)ccc32)c1 | –
1.74 µM | – | O=c1oc2cc(-c3cnc4[nH]ccc4c3)ccc2n1Cc1cccc(OC(F)F)c1 | –
3.99 µM | – | COc1cccc(Cn2c(=O)oc3cc(-c4cccnc4)ccc32)c1 | –
2.84 µM | – | O=c1oc2cc(-c3cnc4[nH]ccc4c3)ccc2n1Cc1cccc(C(F)(F)F)c1 | –
1.26 µM | – | O=c1oc2cc(-c3ccc4[nH]ccc4c3)ccc2n1Cc1ccc(F)cc1 | –
> 10 µM | – | O=c1oc2cc(-c3ccc4scnc4c3)ccc2n1Cc1ccc(F)cc1 | –
